Read-outs that look alike come from different tables or passages of the source.
Assays:
human P-gp (ABCB1) = target: T1, human P-gp (ABCB1) (Homo sapiens, UniProt P08183); test: Concentration equilibrium transport assay (CETA), LLC-PK1 cells transduced with human ABCB1; type: in vitro ADME; conditions: omacetaxine 100 nM, up to 4 h
T1 construct: expressed in transfected cells; host or cells: LLC-PK1 (pig kidney) cells transduced with human ABCB1 (LLC-MDR1)
Experimental: In vitro transport studies were performed using the LLC pig kidney cell line (LLC-PK1) and sub-lines transduced with murine Abcb1a (LLC-Mdr1a) or human ABCB1 (LLC-MDR1). Similarly, in vitro transport studies were conducted in the parental Madin–Darby canine kidney (MDCK) type II cell line (MDCK-Parent) and murine Abcg2 (MDCK-Bcrp1) or human ABCG2 (MDCK-BCRP) transduced sublines. Concentration equilibrium transport assays (CETA) were performed as previously described. Briefly, cells were grown on polycarbonate membrane filters (3.0 µm pores, 24 mm diameter; Costar Corning, NY, USA) for 4 days. Next, 2 mL of MEM medium containing 10% FCS and omacetaxine (100 nM) was added to both the apical and basal compartments. Then, [14C]-inulin ([…]) was added basolateral to check the membrane integrity. Zosuquidar 1 μM was added to all wells containing MDCK cells to inhibit endogenous (canine) ABCB1. […] The integrity of the membrane was checked by taking 20 μL samples from both apical and basolateral sides for radioactivity counting. […] OMA concentrations were measured using an LC-MS/MS system that consisted of an UltiMate 3000 LC System (Dionex, Sunnyvale, CA, USA) and an API 4000 mass spectrometer (Sciex, Framingham, MA, USA).

[1] = Pharmacokinetics of omacetaxine in orthotopic glioblastoma PDX and naïve NOD/SCID mice (LC-MS/MS of plasma, brain, liver); type: in vivo, mouse; conditions: for [Brain] ± SD, right hemisphere (tumor bearing) / [Liver] ± SD / [Plasma] ± SD / [Brain]/[Plasma] Ratio ± SD / concentration at 60 min: 1.5 mg/kg; for concentration at 60 min: female, NOD/SCID, mouse, sc
Experimental: An amount of 10 μL medium samples was vortex-mixed with 30 μL of acetonitrile: formic acid (100:1 v/v) containing 100 nM RO-3306 Internal Standard). After centrifugation, the supernatant was 5-fold diluted in water. OMA concentrations were measured using an LC-MS/MS system that consisted of an UltiMate 3000 LC System (Dionex, Sunnyvale, CA, USA) and an API 4000 mass spectrometer (Sciex, Framingham, MA, USA). Samples were analyzed using a ZORBAX Extend-C18 column (Agilent, Santa Clara, CA, USA), preceded by a Security-guard C18 pre-column (Phenomenex, Utrecht, The Netherlands). Elution was performed using a mixture of mobile phase A (0.1% formic acid in water (v/v)) and mobile phase B (methanol) in a 5 min gradient from 20% to 95% B, followed by 95% B that was maintained for 3 min and then re-equilibrated at 20% B. Multiple reaction monitoring parameters were 546.6/298.1 (OMA) and 352.1/186.0 (RO-3306).
Non-obese diabetic severe combined immunodeficient (NOD/SCID) female mice 6–8 weeks of age were used for this study. All experiments were ethically approved by the local Animal Experiments Committee. Patient-derived glioblastoma cell lines were cultured under serum-free conditions prior to injection into the mice. Mice were stereotactically injected with GS607, GS832 (both 2.5 × 10^5 in 5 μL) or GBM8 (1 × 10^5 in 3 μL) in the right striatum 1.0 mm anteroposterior (AP), 2.0 mm medio lateral (ML) and −2.5 mm dorsal ventral (DV) of bregma suture under aseptic conditions. Mice were monitored daily for signs of persistent abnormal behavior and/or breathing, weight loss >20% and development of neurological symptoms such as convulsions, seizures and/or hemiparesis. Mice were euthanized and the mouse brains harvested for histological and LC/MS/MS analysis.
A single dose of 1.5 mg/kg of OMA was administered s.c. to glioblastoma-bearing NOD/SCID and naïve non-tumor-bearing mice. Mice received OMA prior to the timepoint drug delivery experiment, ensuring the presence of significant tumor masses. For GS607, this was at 78 days; for GS832 at 90 days; and for GBM8 at 46 days post-tumor implantation, based on previous survival experiments. Blood samples were collected at 15 min, 30 min, 60 min, 120 min and 240 min via the tail vein and/or submandibular vein and placed in EDTA tubes. Mice were euthanized at 60 min, 120 min or 240 min with cervical dislocation. Brains and livers were surgically collected and snap-frozen in liquid nitrogen (N2). To preserve the drug stability in plasma mouse blood, samples were centrifuged immediately upon collection. Plasma was separated by centrifugation at 3500 rpm at 4 °C for 15 min. Both plasma and tissue samples were stored at −80 °C until LC-MS/MS analysis.

[2] = GBM8 PDX, 60 min, single s.c. dose 1.5 mg/kg, n = 6
[3] = GS607-PDX, 60 min, single s.c. dose 1.5 mg/kg, n = 2 blood samples
[4] = GS607-PDX, 60 min, single s.c. dose 1.5 mg/kg, n = 4
[5] = GS832-PDX, 60 min, single s.c. dose 1.5 mg/kg, n = 5
[6] = GS832-PDX, single s.c. dose 1.5 mg/kg

T1 sequence (P08183 whole entry): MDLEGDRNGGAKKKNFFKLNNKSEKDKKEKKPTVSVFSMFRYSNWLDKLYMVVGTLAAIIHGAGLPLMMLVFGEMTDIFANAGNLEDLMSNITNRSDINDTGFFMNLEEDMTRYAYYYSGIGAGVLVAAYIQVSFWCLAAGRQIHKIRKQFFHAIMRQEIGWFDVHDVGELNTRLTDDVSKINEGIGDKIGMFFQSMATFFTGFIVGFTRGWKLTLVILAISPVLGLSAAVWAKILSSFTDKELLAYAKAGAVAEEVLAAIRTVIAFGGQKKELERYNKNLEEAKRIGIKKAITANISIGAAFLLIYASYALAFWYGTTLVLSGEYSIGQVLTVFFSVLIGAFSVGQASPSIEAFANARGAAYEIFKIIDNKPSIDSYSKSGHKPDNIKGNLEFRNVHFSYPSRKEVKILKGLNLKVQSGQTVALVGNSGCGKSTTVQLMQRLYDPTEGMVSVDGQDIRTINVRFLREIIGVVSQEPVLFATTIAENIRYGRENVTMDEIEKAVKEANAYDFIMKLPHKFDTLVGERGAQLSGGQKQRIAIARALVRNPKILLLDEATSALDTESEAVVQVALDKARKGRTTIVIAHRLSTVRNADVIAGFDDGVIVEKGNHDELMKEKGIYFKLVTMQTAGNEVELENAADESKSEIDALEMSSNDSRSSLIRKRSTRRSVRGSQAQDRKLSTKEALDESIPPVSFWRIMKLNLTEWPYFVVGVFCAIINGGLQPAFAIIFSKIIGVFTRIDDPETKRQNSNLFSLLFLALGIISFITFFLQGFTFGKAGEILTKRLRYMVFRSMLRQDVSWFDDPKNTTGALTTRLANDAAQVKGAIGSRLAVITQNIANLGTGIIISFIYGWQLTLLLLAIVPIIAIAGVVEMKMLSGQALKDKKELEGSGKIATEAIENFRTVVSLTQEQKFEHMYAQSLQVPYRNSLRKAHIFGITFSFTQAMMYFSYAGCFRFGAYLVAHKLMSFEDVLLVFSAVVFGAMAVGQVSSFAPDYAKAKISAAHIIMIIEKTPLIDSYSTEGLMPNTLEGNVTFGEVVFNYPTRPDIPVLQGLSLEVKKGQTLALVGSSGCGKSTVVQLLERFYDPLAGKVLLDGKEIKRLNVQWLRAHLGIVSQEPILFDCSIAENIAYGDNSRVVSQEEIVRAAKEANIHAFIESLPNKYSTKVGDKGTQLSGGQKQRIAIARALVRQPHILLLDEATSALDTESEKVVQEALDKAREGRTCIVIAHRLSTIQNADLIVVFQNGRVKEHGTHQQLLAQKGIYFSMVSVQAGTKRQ

substrate of P-gp (translocation basolateral to apical) (human P-gp (ABCB1)): weak substrate
[Brain] ± SD, right hemisphere (tumor bearing) [1, 2]: 45.0 ± 20.0 ng/g
[Liver] ± SD [1, 2]: 998.2 ± 254.3 ng/g
[Plasma] ± SD [1, 2]: 391.3 ± 57.5 ng/mL
[Brain]/[Plasma] Ratio ± SD ([1]; GBM8 PDX, 60 min, single s.c. dose 1.5 mg/kg): 0.11 ± 0.04
[Brain]/[Plasma] Ratio ± SD [1, 3]: 0.23 ± 0.01
[Plasma] ± SD [1, 3]: 88.4 ± 9.0 ng/mL
[Brain] ± SD, right hemisphere (tumor bearing) [1, 4]: 20.7 ± 5.05 ng/g
[Liver] ± SD [1, 4]: 1653.4 ± 163.6 ng/g
[Plasma] ± SD ([1]; GS832-PDX NOD/SCID mice, single s.c. dose 1.5 mg/kg, 15 min (Table 1)): 396.3 ± 58.7 ng/mL
[Plasma] ± SD ([1]; GS832-PDX NOD/SCID mice, single s.c. dose 1.5 mg/kg, 60 min (Table 1, n = 9)): 165.7 ± 28.7 ng/mL
[Plasma] ± SD ([1]; GS832-PDX NOD/SCID mice, single s.c. dose 1.5 mg/kg, 240 min (Table 1)): 23.9 ± 2.86 ng/mL
[Brain] ± SD, right hemisphere (tumor bearing) [1, 5]: 18.0 ± 6.3 ng/g
[Liver] ± SD [1, 5]: 680.0 ± 155.9 ng/g
[Brain]/[Plasma] Ratio ± SD ([1]; GS832-PDX, 60 min, single s.c. dose 1.5 mg/kg): 0.10 ± 0.05
[Liver] ± SD ([1]; GS832-PDX, 240 min, single s.c. dose 1.5 mg/kg, n = 5): 190.1 ± 47.8 ng/g
[Brain]/[Plasma] Ratio ± SD ([1]; GS832-PDX, 240 min, single s.c. dose 1.5 mg/kg): 0.50 ± 0.33
brain total mean concentration lower than in the liver [1, 6]: approximately 40 fold
concentrations in tumor-bearing hemisphere versus contralateral hemisphere [1, 6]: not significantly different
reduction in plasma concentration from peak (15 min) by 4 h ([1]; GS832 tumor-bearing mice, single s.c. dose 1.5 mg/kg): 17 fold
OMA concentrations in tumor-bearing versus contralateral hemispheres ([1]; any of the tested models (GS832, GS607, GBM8)): did not detect a significant difference
concentration at 60 min ([1]; brain tumor, GBM8 PDX, 60 min, single s.c. dose 1.5 mg/kg, read-out: measured brain tumor concentration expressed): 82.5 nM
concentration at 60 min ([1]; brain tumor, GS607-PDX, 60 min, single s.c. dose 1.5 mg/kg, read-out: measured brain tumor concentration expressed): 37.9 nM
concentration at 60 min ([1]; brain tumor, GS832-PDX, 60 min, single s.c. dose 1.5 mg/kg, read-out: measured brain tumor concentration expressed): 33 nM
concentration at 60 min ([1]; brain, right hemisphere (non-tumor-bearing), naïve non-tumor-bearing mice, 60 min, single s.c. dose 1.5 mg/kg, n = 2, read-out: [Brain] ± SD, right hemisphere (non-tumor-bearing)): 16.4 ± 2.9 ng/g
concentration at 60 min ([1]; brain, right hemisphere (tumor bearing), GBM8 PDX, 60 min, single s.c. dose 1.5 mg/kg, n = 6, read-out: [Brain] ± SD, right hemisphere (tumor bearing)): 45 ± 20 ng/g
concentration at 60 min ([1]; brain, right hemisphere (tumor bearing), GS607-PDX, 60 min, single s.c. dose 1.5 mg/kg, n = 4, read-out: [Brain] ± SD, right hemisphere (tumor bearing)): 21 ± 5 ng/g
concentration at 60 min ([1]; brain, right hemisphere (tumor bearing), GS832-PDX, 60 min, single s.c. dose 1.5 mg/kg, n = 5, read-out: [Brain] ± SD, right hemisphere (tumor bearing)): 18 ± 6 ng/g
SMILES: COC(=O)C[C@](O)(CCCC(C)(C)O)C(=O)O[C@@H]1C(OC)=C[C@]23CCCN2CCc2cc4c(cc2[C@H]13)OCO4 [OMA, Omacetaxine mepesuccinate]
